Data as given in patent publication EP1144369B1 (Wyeth Holdings Corporation, priority 1999, dated 2000).
Where a name gives a salt, the structure may show the parent alone.

What was measured:
MMP-9 = MMP-9 (Homo sapiens, UniProt P14780); assay: MMP-9 inhibition (thiopeptide or fluorescent peptide substrate); assay type: biochemical
Method: (§1) The enzyme activity is measured by the rate of the color increase. The thiopeptide substrate is made up fresh as a 20 mM stock in 100% DMSO and the DTNB is dissolved in 100% DMSO as a 100 mM stock and stored in the dark at room temperature. Both the substrate and DTNB are diluted together to 1 mM with substrate buffer (50 mM HEPES pH 7.5, 5 mM CaCl2) before use. The stock of enzyme is diluted with buffer (50 mM HEPES, pH 7.5, 5 mM CaCl2, 0.02% Brij) to the desired final concentration.
(§2) Alternatively, a fluorescent peptide substrate is used. In this test procedure, the peptide substrate contains a fluorescent group and a quenching group. Upon cleavage of the substrate by an MMP, the fluorescence that is generated is quantitated on the fluorescence plate reader. The assay is run in HCBC assay buffer (50mM HEPES, pH 7.0, 5 mM Ca^+2, 0.02% Brij, 0.5% Cysteine), with human recombinant MMP-1, MMP-9, or MMP-13. The substrate is dissolved in methanol and stored frozen in 1 mM aliquots. For the assay, substrate and enzymes are diluted in HCBC buffer to the desired concentrations. Compounds are added to the 96 well plate containing enzyme and the reaction is started by the addition of substrate.
(§3) For either the thiopeptide or fluorescent peptide test procedures, the slope of the line is calculated and represents the reaction rate. The linearity of the reaction rate is confirmed (r^2 >0.85). The mean (x±sem) of the control rate is calculated and compared for statistical significance (p<0.05) with drug-treated rates using Dunnett's multiple comparison test.

[1] = target: TNF-α converting enzyme (TACE) (Homo sapiens, UniProt P78536); assay: TACE inhibition (fluorescent peptidyl substrate); assay type: biochemical; settings: read-out: IC50 (nM) or % Inhibition (µM) TACE
Chain of TNF-α converting enzyme (TACE) (P78536 215-824, species assumed): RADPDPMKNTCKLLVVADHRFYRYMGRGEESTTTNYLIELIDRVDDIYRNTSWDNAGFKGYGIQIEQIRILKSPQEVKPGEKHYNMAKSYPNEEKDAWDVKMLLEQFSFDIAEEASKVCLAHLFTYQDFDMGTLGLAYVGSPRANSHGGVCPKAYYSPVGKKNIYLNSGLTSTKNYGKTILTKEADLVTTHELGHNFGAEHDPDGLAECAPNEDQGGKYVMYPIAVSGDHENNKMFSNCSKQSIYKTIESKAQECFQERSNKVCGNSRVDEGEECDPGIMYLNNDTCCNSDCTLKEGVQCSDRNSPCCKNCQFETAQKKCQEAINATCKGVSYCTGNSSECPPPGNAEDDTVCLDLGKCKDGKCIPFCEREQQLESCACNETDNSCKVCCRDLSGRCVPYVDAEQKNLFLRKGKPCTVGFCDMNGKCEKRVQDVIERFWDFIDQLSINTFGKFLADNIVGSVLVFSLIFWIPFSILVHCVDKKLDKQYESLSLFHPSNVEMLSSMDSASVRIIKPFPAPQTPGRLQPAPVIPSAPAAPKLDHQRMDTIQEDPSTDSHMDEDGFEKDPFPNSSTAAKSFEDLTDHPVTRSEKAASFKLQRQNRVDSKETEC
Method: Using 96-well black microtiter plates, each well receives a solution composed of 10 µL TACE (final concentration 1µg/mL), 70µL Tris buffer, pH 7.4 containing 10% glycerol (final concentration 10 mM), and 10 µL of test compound solution in DMSO (final concentration 1µM, DMSO concentration <1%) and incubated for 10 minutes at room temperature. The reaction is initiated by addition of a fluorescent peptidyl substrate (final concentration 100 µM) to each well and then shaking on a shaker for 5 sec.
The reaction is read (excitation 340 nm, emission 420 nm) for 10 min. and the increase in fluorescence over time is plotted as a linear line. The slope of the line is calculated and represents the reaction rate.
The linearity of the reaction rate is confirmed (r^2 >0.85). The mean (x±sem) of the control rate is calculated and compared for statistical significance (p<0.05) with drug-treated rates using Dunnett's multiple comparison test.

MMP-1 = target: T1, MMP-1 (Homo sapiens, UniProt P03956); assay: MMP-1 inhibition (thiopeptide or fluorescent peptide substrate); assay type: biochemical; settings: for IC50: plain number = IC50; for inhibition at 10 µM: read-out: IC50 (nM) or % Inhibition (µM) MMP-1
T1 sequence (P03956 100-469): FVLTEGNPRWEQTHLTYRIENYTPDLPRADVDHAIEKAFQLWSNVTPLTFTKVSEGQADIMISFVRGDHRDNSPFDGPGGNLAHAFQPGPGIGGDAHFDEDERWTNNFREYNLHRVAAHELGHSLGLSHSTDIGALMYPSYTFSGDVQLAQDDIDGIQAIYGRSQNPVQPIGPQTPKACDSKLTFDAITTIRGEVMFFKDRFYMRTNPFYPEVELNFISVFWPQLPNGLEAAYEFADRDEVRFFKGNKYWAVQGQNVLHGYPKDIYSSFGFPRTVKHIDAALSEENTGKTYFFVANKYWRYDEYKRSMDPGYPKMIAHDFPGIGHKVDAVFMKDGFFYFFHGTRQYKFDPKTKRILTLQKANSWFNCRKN
Method: as §1, §2, §3

THP-1 cells = assay: THP-1 soluble protein assay (LPS-stimulated human monocytic THP-1 cells); assay type: cell-based; settings: LPS-stimulated THP-1 cells; for inhibition at 3 µM: Homo sapiens, read-out: % Inhib. @ 3µM THP
Description: Mitogenic stimulation of THP-1 cells cause differentiation into macrophage like cells with concomitant secretion of tumor necrosis factor (TNF-a) and TNF receptor (TNF-R p75/80 and TNF-R p55/60) and Interleukin-8 (IL-8), among other proteins. In addition, non-stimulated THP-1 cells shed both the p75/80 and the p55/60 receptors over time. The release of membrane bound TNF-α and possibly TNF-R p75/80 and TNF-R p55/60, but not IL-8, is mediated by an enzyme called TNF-a converting enzyme or TACE.
THP-1 cells (from ATCC) are a human monocytic cell line which were obtained from the peripheral blood of a person with acute monocytic leukemia. They can be grown in culture and differentiated into macrophage like cells by stimulation with mitogens.
Each vial of cells are cultured for about two weeks prior to being used for an assay and then are used for only 4 to 6 weeks to screen compounds.
Cell exposure to DMSO was limited to 0.1 % final concentration. […] Compounds can be evaluated for their effect on basal (non-stimulated) shedding of the receptors by replacing the LPS with […] of THP-1 media. Plates are placed into an incubator set at 5% CO2 and at 37°C. After 4 hours of incubation, […] of tissue culture supernatant (TCS) is removed for use in an TNF-a ELISA. Following 24 hours of incubation, […] of TCS is removed and used for analysis in TNF-R p75/80, TNF-R p55/60 and IL-8 ELISAs.
In addition, at the 24 hours timepoint, and the cells for each treatment group are collected by resuspension in 500 µl/well of THP-1 media and transferred into a FACS tube. […] The samples are run on a Becton Dickinson FaxCaliber FLOW cytometry machine and the amount of dye taken up by each cell is measured in the high red wavelength (FL3). Only cells with compromised membranes (dead or dying) can take up PI. The percent of live cells is calculated by the number of cells not stained with PI, divided by the total number of cells in the sample. The viability values calculated for the drug treated groups were compared to the viability value calculated for the vehicle treated mitogen stimulated group ("vehicle positive control") to determine the "percent change from control". This "percent change from control" value is an indicator of drug toxicity.
The quantity of soluble TNF-a, TNF-R p75/80 and TNF-R p55/60 and IL-8 in the TCS of the THP-1 cell cultures are obtained with commercially available ELISAs from R&D Systems, by extrapolation from a standard curve generated with kit standards. The number of cells that either take up or exclude PI are measured by the FLOW cytometry machine and visualized by histograms using commercially available Cytologic software for each treatment group including all controls.
Biological variability in the magnitude of the response of THP-1 cell cultures requires that experiments be compared on the basis of percent change from "vehicle positive control" for each drug concentration. Percent change in each soluble protein evaluated from the "vehicle positive control" was calculated for each compound concentration with the following formula: % Change =(pg/ml(compound) - pg/ml (veh pos control))/(pg/ml (veh pos control) - pg/ml(veh neg control))x 100 [formula]
For the soluble protein (TNF-a, p75/80, p55/60, IL-8) studies under stimulated conditions, the mean pg/ml of duplicate wells were determined and the results expressed as percent change from "vehicle positive control". For the soluble protein (p75/80 and p55/60 receptors) studies under non-stimulated conditions, the mean pg/ml of duplicate wells were determined and the results expressed as percent change from "vehicle positive control" utilizing the following formula: % Change =(pg/ml (compound neg control) - pg/ml (veh neg control)/(pg/ml (veh neg control))X 100 [formula]
IC50 values for each compound are calculated by non-linear regression analysis using customized software utilizing the JUMP statistical package.

MMP-13 = MMP-13 (Homo sapiens, UniProt P45452); assay: MMP-13 inhibition (thiopeptide or fluorescent peptide substrate); assay type: biochemical
Method: as §1, §2, §3

Chain of MMP-9 (P14780 94-707): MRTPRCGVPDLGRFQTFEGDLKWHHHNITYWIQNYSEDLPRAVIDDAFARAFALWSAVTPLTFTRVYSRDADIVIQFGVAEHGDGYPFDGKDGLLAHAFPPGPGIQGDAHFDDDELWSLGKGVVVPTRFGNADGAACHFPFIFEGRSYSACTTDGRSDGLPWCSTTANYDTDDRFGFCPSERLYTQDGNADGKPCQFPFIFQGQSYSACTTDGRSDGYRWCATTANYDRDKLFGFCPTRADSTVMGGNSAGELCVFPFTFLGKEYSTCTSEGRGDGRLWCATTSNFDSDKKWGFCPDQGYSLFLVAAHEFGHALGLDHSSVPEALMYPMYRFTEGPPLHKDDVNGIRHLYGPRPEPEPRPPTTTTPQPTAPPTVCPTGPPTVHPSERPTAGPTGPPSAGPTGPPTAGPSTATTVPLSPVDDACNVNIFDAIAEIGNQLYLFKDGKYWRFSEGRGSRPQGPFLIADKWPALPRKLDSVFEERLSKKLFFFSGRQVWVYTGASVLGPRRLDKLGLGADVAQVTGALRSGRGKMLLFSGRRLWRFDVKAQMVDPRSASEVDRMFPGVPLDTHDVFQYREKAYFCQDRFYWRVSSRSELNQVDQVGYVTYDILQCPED

Row | Molecule | IC50 (MMP-9) | IC50 [1] | IC50 (MMP-1) | inhibition at 3 µM (THP-1 cells) | IC50 (MMP-13) | inhibition at 10 µM (MMP-1) | % Inhib. @ 3µM THP (THP-1 cells)
1 | COc1cccc(C#CCOc2ccc(S(=O)(=O)N(C)c3c(C)cc(Br)cc3C(=O)NO)cc2)c1 [Example 60, 5-Bromo-N-hydroxy-2-({4-[3-(3-methoxy-phenyl)-prop-2-ynyloxy]-benzenesulfonyl}-methyl-amino)-3-methyl-benzamide] | 671 nM | 91 nM | 1030 nM | 1% | 935 nM |  | 
2 | Cc1cc(Br)cc(C(=O)NO)c1N(C)S(=O)(=O)c1ccc(OCC#CCNCCN(C)C)cc1 [Example 34, 5-Bromo-2-({4-[4-(2-dimethylamino-ethylamino)-but-2-ynyloxy]-benzenesulfonyl}-methyl-amino)-N-hydroxy-3-methyl-benzamide] | 790 nM | 127 nM |  | 22% | 383 nM | 39% | 
3 | Cc1cc(Br)cc(C(=O)NO)c1N(C)S(=O)(=O)c1ccc(OCC#CCNCCCN(C)C)cc1 [Example 33, 5-Bromo-2-({4-[4-(3-dimethylamino-propylamino)-but-2-ynyloxy]-benzenesulfonyl}-methyl-amino)-N-hydroxy-3-methyl-benzamide] | 1200 nM | 29 nM |  | 14% | 908 nM | 32% | 
4 | CCN(CC)CC#CCOc1ccc(S(=O)(=O)N(C)c2c(C)cc(Br)cc2C(=O)NO)cc1 [Example 66, 5-Bromo-2-{[4-(4-diethylamino-but-2-ynyloxy)-benzenesulfonyl]-methyl-amino}-N-hydroxy-3-methyl-benzamide] | 2830 nM | 346 nM |  | 5% | 2380 nM | 21% | 
5 | COc1ccc(C#CCOc2ccc(S(=O)(=O)N(C)c3c(C)cc(Br)cc3C(=O)NO)cc2)cc1 [Example 62, 5-Bromo-N-hydroxy-2-({4-[3-(4-methoxy-phenyl)-prop-2-ynyloxy]-benzenesulfonyl}-methyl-amino)-3-methyl-benzamide] | 901 nM | 104 nM | 3600 nM | 15% | 588 nM |  | 
6 | COc1ccccc1C#CCOc1ccc(S(=O)(=O)N(C)c2c(C)cc(Br)cc2C(=O)NO)cc1 [Example 61, 5-Bromo-N-hydroxy-2-({4-[3-(2-methoxy-phenyl)-prop-2-ynyloxy]-benzenesulfonyl}-methyl-amino)-3-methyl-benzamide] | 1510 nM | 193 nM |  | 0% | 1200 nM | 52% | 
7 | Cc1cc(Br)cc(C(=O)NO)c1N(C)S(=O)(=O)c1ccc(OCC#Cc2cccc(O)c2)cc1 [Example 84, 5-Bromo-N-hydroxy-2-({4-[3-(3-hydroxy-phenyl)-prop-2-ynyloxy]-benzenesulfonyl}-methyl-amino)-3-methyl-benzamide] | 694 nM | 34 nM | 113 nM | 0% | 189 nM |  | 
8 | CC#CCOc1ccc(S(=O)(=O)N(C)c2c(CN3CCN(C)CC3)cc(-c3ccccc3)cc2C(=O)NO)cc1 [Example 76, 4-[(4-But-2-ynyloxy-benzenesulfonyl)-methyl-amino]-5-(4-methyl-piperazin-1-ylmethyl)-biphenyl-3-carboxylic acid hydroxyamide dihydro-chloride salt] | 28 nM | 42 nM | 1920 nM | 95% | 47 nM |  | 
9 | 5-Bromo-2-[(4-butoxy-benzenesulfonyl)-methyl-amino]-N-hydroxy-3-methyl-benzamide [Example 39] | 21 nM | 67 nM | 2490 nM |  | 68 nM |  | 0%
10 | CC#CCOc1ccc(S(=O)(=O)N(C)c2c(C)cc(I)cc2C(=O)NO)cc1 [Example 63, 2-[(4-But-2-ynyloxy-benzenesulfonyl)-methyl-amino]-N-hydroxy-5-iodo-3-methyl-benzamide] | 840 nM | 16 nM | 901 nM | 87% | 275 nM |  | 
11 | Cc1cc(Br)cc(C(=O)NO)c1N(C)S(=O)(=O)c1ccc(OCC#CCOC2CCCCO2)cc1 (stereo not drawn) [Example 69, 5-Bromo-N-hydroxy-3-methyl-2-(methyl-{4-[4-(tetrahydro-pyran-2-yloxy)-but-2-ynyloxy]-benzenesulfonyl}-amino)-benzamide] | 396 nM | 30 nM |  | 19% | 177 nM | 25% | 
12 | CC#CCOc1ccc(S(=O)(=O)N(C)c2c(C)cc(-c3ccccc3)cc2C(=O)NO)cc1 [Example 43, 4-[(4-But-2-ynyloxy-benzenesulfonyl)-methyl-amino]-5-methyl-biphenyl-3-carboxylic acid hydroxyamide] | 578 nM | 135 nM | 4240 nM | 76% | 518 nM |  | 
